Test results: patent US20020137929A1, “1 - (3-heterocyclylphenyl) isothiourea, -isourea, -guanidine and -amidine herbicidal agents” (Intellectual Property Department, BASF Aktiengesellschaft, priority 1998, published 2002)

Tests used:
[1] = tested on: MOOVA (Monochoria); assay: Postemergence weed control under flooded paddy conditions; assay type: in vivo, Monochoria vaginalis; conditions: postemergence weeds
Summary of the method: (§1)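 Containers holding 3–5 cm weeds and rice at 1.5–2.5 leaves are flooded to 1.5–3 cm above soil. Compound in 50/50 v/v aqueous/acetone is then added directly to the water, about 0.0313–0.500 kg/ha. Plants are kept in the greenhouse and rated 0–9 visually at 3–4 weeks.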

[2] = tested on: AMBEL (Ragweed, Common); assay: Preemergence herbicidal evaluation; assay type: in vivo, Ambrosia artemisifolia; conditions: rated 4-5 weeks after treatment
Summary of the method: (§2)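 Seeds were planted in potting soil in cups, then sprayed preemergence with the test compound in aqueous acetone at about 0.0156 to 0.500 kg per hectare. Cups were kept under greenhouse conditions and visually rated 4–5 weeks after treatment on a 0–9 scale against an untreated control.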

[3] = tested on: SAGPY (Arrowhead (Pygmaea)); assay: Postemergence weed control under flooded paddy conditions; assay type: in vivo, Sagittaria pygmaea; conditions: postemergence weeds
Summary of the method: as §1

[4] = tested on: GLXMAW (Soybean, Williams); assay: Preemergence herbicidal evaluation; assay type: in vivo, Glycine max, (L.) Merr. cv Williams; conditions: rated 4-5 weeks after treatment
Summary of the method: as §2

[5] = tested on: ABUTH (Velvetleaf); assay: Preemergence herbicidal evaluation; assay type: in vivo, Abutilon theophrasti; conditions: rated 4-5 weeks after treatment
Summary of the method: as §2

[6] = tested on: ZEAMX (Corn, Field); assay: Postemergence herbicidal evaluation; assay type: in vivo, Zea mays
Summary of the method: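 Scores (0–9) reflect plant stand, vigor, malformation, size, chlorosis and general appearance relative to control, read 4 to 5 weeks after treatment and averaged where tests were repeated. Application: about 0.0156–0.500 kg/ha sprayed at 40 psi onto two-week seedlings.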

[7] = rate 0.0313 kg/ha, 3-4 weeks after treatment
[8] = rate 0.0825 kg/ha, 3-4 weeks after treatment
[9] = rate 0.1250 kg/ha, 3-4 weeks after treatment
[10] = rate 0.2500 kg/ha, 3-4 weeks after treatment
[11] = rate 0.0625 kg/ha, 3-4 weeks after treatment
[12] = Rate 0.0313 kg/ha, rated 3 to 4 weeks after treatment
[13] = Rate 0.0625 kg/ha, rated 3 to 4 weeks after treatment
[14] = Rate 0.1250 kg/ha, rated 3 to 4 weeks after treatment
[15] = Rate 0.2500 kg/ha, rated 3 to 4 weeks after treatment

Cn1c(C(F)(F)F)cc(=O)n(-c2cc(N=C3SCC(=O)N3CC(=O)OC(C)(C)C)c(Cl)cc2F)c1=O [Compound 43, tert-Butyl 2-{{2-chloro-5-[3,6-dihydro-3-methyl-2,6-dioxo-4-(trifluoromethyl)-1(2H)-pyrimidinyl]-4-fluorophenyl}imino}-4-oxo-3-thiazolidineacetate]
Herbicidal rating MOOVA [1, 7]: 9.0 | Herbicidal rating MOOVA [1, 8]: 9.0 | Herbicidal rating MOOVA [1, 9]: 9.0 | Herbicidal rating MOOVA [1, 10]: 9.0 | Preemergence herbicidal rating AMBEL ([2]; rate 0.0156 kg/ha): 0.0 | Preemergence herbicidal rating AMBEL ([2]; rate 0.0313 kg/ha): 0.0 | Preemergence herbicidal rating AMBEL ([2]; rate 0.0625 kg/ha): 0.0 | Preemergence herbicidal rating AMBEL ([2]; rate 0.1250 kg/ha): 3.0 | Preemergence herbicidal rating AMBEL ([2]; rate 0.2500 kg/ha): 4.0 | Herbicidal rating SAGPY [3, 7]: 7.0 | Herbicidal rating SAGPY [3, 8]: 7.0 | Herbicidal rating SAGPY [3, 9]: 7.0 | Herbicidal rating SAGPY [3, 10]: 9.0 | Preemergence herbicidal rating GLXMAW ([4]; rate 0.0156 kg/ha): 0.0 | Preemergence herbicidal rating GLXMAW ([4]; rate 0.0313 kg/ha): 0.0 | Preemergence herbicidal rating GLXMAW ([4]; rate 0.0625 kg/ha): 0.0 | Preemergence herbicidal rating GLXMAW ([4]; rate 0.1250 kg/ha): 0.0 | Preemergence herbicidal rating GLXMAW ([4]; rate 0.2500 kg/ha): 2.0 | Preemergence herbicidal rating ABUTH ([5]; rate 0.0156 kg/ha): 9.0 | Preemergence herbicidal rating ABUTH ([5]; rate 0.0313 kg/ha): 9.0 | Preemergence herbicidal rating ABUTH ([5]; rate 0.0625 kg/ha): 9.0 | Preemergence herbicidal rating ABUTH ([5]; rate 0.1250 kg/ha): 9.0 | Preemergence herbicidal rating ABUTH ([5]; rate 0.2500 kg/ha): 9.0 | Postemergence herbicidal rating ZEAMX ([6]; Rate 0.0158 kg/ha): 4.5 | Postemergence herbicidal rating ZEAMX ([6]; Rate 0.0315 kg/ha): 5.0 | Postemergence herbicidal rating ZEAMX ([6]; Rate 0.0630 kg/ha): 5.5

CCOC(=O)CN1C(=O)CS(=O)(=O)C1=Nc1cc(-n2c(=O)cc(C(F)(F)F)n(C)c2=O)c(F)cc1Cl [Compound 46, 2-{{2-Chloro-5-[3,6-dihydro-3-methyl-2,6-dioxo-4-(trifluoromethyl)-1(2H)-pyrimidinyl]-4-fluoro-phenyl}imino}-4-oxo-3-thiazolidineacetic acid, ethyl ester, 1,1-dioxide]
Herbicidal rating MOOVA [1, 7]: 3.0 | Herbicidal rating MOOVA [1, 11]: 4.0 | Herbicidal rating MOOVA [1, 9]: 6.0 | Herbicidal rating MOOVA [1, 10]: 7.0 | Preemergence herbicidal rating AMBEL ([2]; rate 0.1250 kg/ha): 1.0 | Preemergence herbicidal rating AMBEL ([2]; rate 0.2500 kg/ha): 1.0 | Herbicidal rating SAGPY [3, 7]: 0.0 | Herbicidal rating SAGPY [3, 11]: 0.0 | Herbicidal rating SAGPY [3, 9]: 0.0 | Herbicidal rating SAGPY [3, 10]: 3.0 | Preemergence herbicidal rating GLXMAW ([4]; rate 0.1250 kg/ha): 0.0 | Preemergence herbicidal rating GLXMAW ([4]; rate 0.2500 kg/ha): 0.0 | Preemergence herbicidal rating ABUTH ([5]; rate 0.1250 kg/ha): 9.0 | Preemergence herbicidal rating ABUTH ([5]; rate 0.2500 kg/ha): 9.0 | Postemergence herbicidal rating ZEAMX ([6]; Rate 0.0313 kg/ha): 4.5 | Postemergence herbicidal rating ZEAMX ([6]; Rate 0.0625 kg/ha): 5.0

CCOC(=O)CN1C(=O)C(CCO)S/C1=N/c1cc(-n2c(=O)cc(C(F)(F)F)n(C)c2=O)c(F)cc1Cl (stereo not drawn) [Compound 49, Ethyl 2-{{2-chloro-5-[3,6-dihydro-3-methyl-2,6-dioxo-4-(trifluoromethyl)-1(2H)-pyrimidinyl]-4-fluorophenyl}imino}-5-(hydroxyethyl)-4-oxo-3-thiazolidineacetate]
Herbicidal rating MOOVA [1, 7]: 9.0 | Herbicidal rating MOOVA [1, 11]: 9.0 | Herbicidal rating MOOVA [1, 9]: 9.0 | Herbicidal rating MOOVA [1, 10]: 9.0 | Preemergence herbicidal rating AMBEL ([2]; rate 0.0156 kg/ha): 0.0 | Preemergence herbicidal rating AMBEL ([2]; rate 0.0313 kg/ha): 0.0 | Preemergence herbicidal rating AMBEL ([2]; rate 0.0625 kg/ha): 9.0 | Preemergence herbicidal rating AMBEL ([2]; rate 0.1250 kg/ha): 9.0 | Preemergence herbicidal rating AMBEL ([2]; rate 0.2500 kg/ha): 9.0 | Herbicidal rating SAGPY [3, 7]: 2.0 | Herbicidal rating SAGPY [3, 11]: 4.0 | Herbicidal rating SAGPY [3, 9]: 6.0 | Herbicidal rating SAGPY [3, 10]: 7.0 | Preemergence herbicidal rating GLXMAW ([4]; rate 0.0156 kg/ha): 0.0 | Preemergence herbicidal rating GLXMAW ([4]; rate 0.0313 kg/ha): 0.0 | Preemergence herbicidal rating GLXMAW ([4]; rate 0.0625 kg/ha): 2.0 | Preemergence herbicidal rating GLXMAW ([4]; rate 0.1250 kg/ha): 2.0 | Preemergence herbicidal rating GLXMAW ([4]; rate 0.2500 kg/ha): 2.0 | Preemergence herbicidal rating ABUTH ([5]; rate 0.0156 kg/ha): 9.0 | Preemergence herbicidal rating ABUTH ([5]; rate 0.0313 kg/ha): 9.0 | Preemergence herbicidal rating ABUTH ([5]; rate 0.0625 kg/ha): 9.0 | Preemergence herbicidal rating ABUTH ([5]; rate 0.1250 kg/ha): 9.0 | Preemergence herbicidal rating ABUTH ([5]; rate 0.2500 kg/ha): 9.0 | Postemergence herbicidal rating ZEAMX ([6]; Rate 0.0313 kg/ha): 5.5 | Postemergence herbicidal rating ZEAMX ([6]; Rate 0.0625 kg/ha): 6.0 | Postemergence herbicidal rating ZEAMX ([6]; rate 0.0156 kg/ha): 5.0

CCOC(=O)CN1C(=O)C(CC(=O)OC)S/C1=N/c1cc(-n2c(=O)cc(C(F)(F)F)n(C)c2=O)c(F)cc1Cl (stereo not drawn) [Compound 54, 2-{{2-Chloro-5-[3,6-dihydro-3-methyl-2,6-dioxo-4-(trifluoromethyl)-1(2H)-pyrimidinyl]-4-fluorophenyl}imino}-4-oxo-3,5-thiazolidinediacetic acid, 3-ethyl methyl ester]
Herbicidal rating MOOVA [1, 7]: 0.0 | Herbicidal rating MOOVA [1, 11]: 0.0 | Herbicidal rating MOOVA [1, 9]: 6.0 | Herbicidal rating MOOVA [1, 10]: 6.0 | Preemergence herbicidal rating AMBEL ([2]; rate 0.0156 kg/ha): 0.0 | Preemergence herbicidal rating AMBEL ([2]; rate 0.0313 kg/ha): 0.5 | Preemergence herbicidal rating AMBEL ([2]; rate 0.0625 kg/ha): 8.0 | Preemergence herbicidal rating AMBEL ([2]; rate 0.1250 kg/ha): 9.0 | Preemergence herbicidal rating AMBEL ([2]; rate 0.2500 kg/ha): 9.0 | Preemergence herbicidal rating AMBEL ([2]; rate 0.5000 kg/ha): 9.0 | Herbicidal rating SAGPY [3, 7]: 0.0 | Herbicidal rating SAGPY [3, 11]: 0.0 | Herbicidal rating SAGPY [3, 9]: 0.0 | Herbicidal rating SAGPY [3, 10]: 2.0 | Preemergence herbicidal rating GLXMAW ([4]; rate 0.0156 kg/ha): 0.0 | Preemergence herbicidal rating GLXMAW ([4]; rate 0.0313 kg/ha): 0.5 | Preemergence herbicidal rating GLXMAW ([4]; rate 0.0625 kg/ha): 1.5 | Preemergence herbicidal rating GLXMAW ([4]; rate 0.1250 kg/ha): 3.0 | Preemergence herbicidal rating GLXMAW ([4]; rate 0.2500 kg/ha): 7.5 | Preemergence herbicidal rating GLXMAW ([4]; rate 0.5000 kg/ha): 9.0 | Preemergence herbicidal rating ABUTH ([5]; rate 0.0156 kg/ha): 4.5 | Preemergence herbicidal rating ABUTH ([5]; rate 0.0313 kg/ha): 7.5 | Preemergence herbicidal rating ABUTH ([5]; rate 0.0625 kg/ha): 9.0 | Preemergence herbicidal rating ABUTH ([5]; rate 0.1250 kg/ha): 9.0 | Preemergence herbicidal rating ABUTH ([5]; rate 0.2500 kg/ha): 9.0 | Preemergence herbicidal rating ABUTH ([5]; rate 0.5000 kg/ha): 9.0 | Postemergence herbicidal rating ZEAMX ([6]; Rate 0.0158 kg/ha): 7.5 | Postemergence herbicidal rating ZEAMX ([6]; Rate 0.0315 kg/ha): 8.0 | Postemergence herbicidal rating ZEAMX ([6]; Rate 0.0630 kg/ha): 9.0

C=CCN1C(=O)C(CC(=O)OC)SC1=Nc1cc(-n2c(=O)cc(C(F)(F)F)n(C)c2=O)c(F)cc1Cl (stereo not drawn) [Compound 64, Methyl 3-allyl-2-{{2-chloro-5-[3,6-dihydro-3-methyl-2,6-dioxo-4-(trifluoromethyl)-1(2H)-pyrimidinyl]-4-fluorophenyl}imino}-4-oxo-5-thiazolidineacetate]
Herbicidal rating MOOVA [1, 12]: 7.0 | Herbicidal rating MOOVA [1, 13]: 9.0 | Herbicidal rating MOOVA [1, 14]: 9.0 | Herbicidal rating MOOVA [1, 15]: 9.0 | Preemergence herbicidal rating AMBEL ([2]; rate 0.0156 kg/ha): 2.0 | Preemergence herbicidal rating AMBEL ([2]; rate 0.0313 kg/ha): 6.0 | Preemergence herbicidal rating AMBEL ([2]; rate 0.0625 kg/ha): 7.0 | Preemergence herbicidal rating AMBEL ([2]; rate 0.1250 kg/ha): 9.0 | Preemergence herbicidal rating AMBEL ([2]; rate 0.2500 kg/ha): 9.0 | Herbicidal rating SAGPY [3, 12]: 0.0 | Herbicidal rating SAGPY [3, 13]: 3.0 | Herbicidal rating SAGPY [3, 14]: 5.0 | Herbicidal rating SAGPY [3, 15]: 8.0 | Preemergence herbicidal rating GLXMAW ([4]; rate 0.0156 kg/ha): 0.0 | Preemergence herbicidal rating GLXMAW ([4]; rate 0.0313 kg/ha): 0.0 | Preemergence herbicidal rating GLXMAW ([4]; rate 0.0625 kg/ha): 2.0 | Preemergence herbicidal rating GLXMAW ([4]; rate 0.1250 kg/ha): 3.0 | Preemergence herbicidal rating GLXMAW ([4]; rate 0.2500 kg/ha): 5.0 | Preemergence herbicidal rating ABUTH ([5]; rate 0.0156 kg/ha): 1.0 | Preemergence herbicidal rating ABUTH ([5]; rate 0.0313 kg/ha): 9.0 | Preemergence herbicidal rating ABUTH ([5]; rate 0.0625 kg/ha): 9.0 | Preemergence herbicidal rating ABUTH ([5]; rate 0.1250 kg/ha): 9.0 | Preemergence herbicidal rating ABUTH ([5]; rate 0.2500 kg/ha): 9.0 | Postemergence herbicidal rating ZEAMX ([6]; Rate 0.0158 kg/ha): 7.0 | Postemergence herbicidal rating ZEAMX ([6]; Rate 0.0315 kg/ha): 8.0 | Postemergence herbicidal rating ZEAMX ([6]; Rate 0.0630 kg/ha): 8.0
